Test results reported in patent US11666050B2, “Enhancing the antimicrobial activity of biocides with polymers” (BASF SE, priority 2012, dated 2023).

Key:
Assay type in all cases: cell-based
[1] = test system: Staphylococcus aureus ATCC 6538; experiment: Bactericidal activity, method EN1040 (Example 1, Table 2); conditions: biocide alone; for log redn. after contact time 1 hr: contact time 1 hr; for log redn. after contact time 3 hrs: contact time 3 hrs; for log redn. after contact time 6 hrs: contact time 6 hrs; for log redn. after contact time 24 hrs: contact time 24 hrs
Excerpt: (§1) Lines in grey shading indicate control sample (no PEI or no biocide added): […]

[2] = test system: Pseudomonas aeruginosa ATCC 15442; experiment: Bactericidal activity, method EN1040 (Example 1, Table 1); conditions: biocide alone; for log redn. after contact time 1 hr: contact time 1 hr; for log redn. after contact time 3 hrs: contact time 3 hrs; for log redn. after contact time 6 hrs: contact time 6 hrs; for log redn. after contact time 24 hrs: contact time 24 hrs
Excerpt: as §1

[3] = test system: Staphylococcus aureus ATCC 6538; experiment: Bactericidal activity, method EN1276 (Example 1, Table 3); conditions: biocide 250 ppm a.i., no PEI (control), S. aureus ATCC 6538
Excerpt: as §1

Question: For `O=[N+]([O-])C(Br)(CO)CO` [Bronopol, 2-Bromo-2-nitropropane-1,3-diol], which “log redn. after contact time 1 hr” value ([1]; 0.1% a.i.) is on record?
Answer: <1 log

Question: What about the “log redn. after contact time 3 hrs” value ([1]; 0.1% a.i.) of the same compound?
Answer: <1 log

Question: What about the “log redn. after contact time 6 hrs” value ([1]; 0.1% a.i.) of the same compound?
Answer: <1 log

Question: And the “log redn. after contact time 24 hrs” value ([1]; 0.1% a.i.)?
Answer: 2.4 log

Question: And the “log redn. after contact time 1 hr” value ([2]; 0.1% a.i.)?
Answer: <1 log

Question: And the “log redn. after contact time 3 hrs” value ([2]; 0.1% a.i.)?
Answer: <1 log

Question: What about the “log redn. after contact time 6 hrs” value ([2]; 0.1% a.i.) of the same compound?
Answer: 4.2 log

Question: And the “log redn. after contact time 24 hrs” value ([2]; 0.1% a.i.)?
Answer: 2.4 log

Question: Which “log redn. after Contact time 5 min” value [3] does the source give for `Oc1cc(Cl)ccc1Oc1ccc(Cl)cc1` [Tinosan® HP 100, Hydroxydichlorodiphenyl Ether] here?
Answer: 4.9 log redn.

Question: How did the “log redn. after contact time 1 hr” value ([1]; 1% a.i.) turn out when `OCCOc1ccccc1` [phenoxyethanol, 2-Phenoxyethanol] was run?
Answer: <1 log

Question: What about the “log redn. after contact time 3 hrs” value ([1]; 1% a.i.) of the same compound?
Answer: <1 log

Question: And the “log redn. after contact time 6 hrs” value ([1]; 1% a.i.)?
Answer: <1 log

Question: What about the “log redn. after contact time 24 hrs” value ([1]; 1% a.i.) of the same compound?
Answer: 1.1 log

Question: And the “log redn. after contact time 1 hr” value ([2]; 1% a.i.)?
Answer: <1 log

Question: What about the “log redn. after contact time 3 hrs” value ([2]; 1% a.i.) of the same compound?
Answer: 1.3 log

Question: What about the “log redn. after contact time 6 hrs” value ([2]; 1% a.i.) of the same compound?
Answer: 2.8 log

Question: And the “log redn. after contact time 24 hrs” value ([2]; 1% a.i.)?
Answer: >6 log
